Source: patent US20050239853A1, “New compounds” (priority 2004, published 2005)
Structures can show the parent of a compound that is named as a salt.

Tests used:
[1] = molecular target: T1, human 11-β-hydroxysteroid dehydrogenase type-1 enzyme (11-β-HSD1) (Homo sapiens, UniProt P28845); test: Scintillation Proximity Assay (11-β-HSD1 enzyme assay); type: biochemical; details: calculated from IC50 (Cheng Prushoff); tritiated Cortisone/NADPH 175 nM/181 μM; enzyme expressed in Pichia pastoris
T1 construct: made in house; host or cells: Pichia pastoris
T1 sequence (P28845 whole entry): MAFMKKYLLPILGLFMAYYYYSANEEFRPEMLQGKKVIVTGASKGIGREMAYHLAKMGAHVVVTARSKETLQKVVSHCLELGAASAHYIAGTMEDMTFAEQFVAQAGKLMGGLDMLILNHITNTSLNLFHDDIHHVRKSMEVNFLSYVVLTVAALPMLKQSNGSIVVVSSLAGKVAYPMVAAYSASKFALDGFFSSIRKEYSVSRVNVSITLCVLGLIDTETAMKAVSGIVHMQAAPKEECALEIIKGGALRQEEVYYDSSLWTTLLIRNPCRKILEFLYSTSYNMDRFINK
Description: Scintillation Proximity Assay
[1,2(n)-^3H]-cortisone was purchased from Amersham Pharmacia Biotech. Anti-cortisol monoclonal mouse antibody, clone 6D6.7 was obtained from Immunotech and Scintillation proximity assay (SPA) beads coated with monoclonal antimouse antibodies were from Amersham Pharmacia Biotech. NADPH, tetrasodium salt was from Calbiochem and glucose-6-phosphate (G-6-P) was supplied by Sigma. The human 11-β-hydroxysteroid dehydrogenase type-1 enzyme (11-β-HSD1) was expressed in Pichia pastoris. 18-β-glycyrrhetinic acid (GA) was obtained from Sigma. The serial dilutions of the compounds were performed on a Tecan Genesis RSP 150. Compounds to be tested were dissolved in DMSO (1 mM) and diluted in 50 mM Tris-HCl, pH 7.2 containing 1 mM EDTA.
The multiplication of plates was done on a WallacQuadra. The amount of the product [^3H]-cortisol, bound to the beads was determined in a Packard, Top Count microplate liquid scintillation counter.
The 11-β-HSD1 enzyme assay was carried out in 96 well microtiter plates (Packard, Optiplate) in a total well volume of 220 μL and contained 30 mM Tris-HCl, pH 7.2 with 1 mM EDTA, a substrate mixture tritiated Cortisone/NADPH (175 nM/181 μM), G-6-P (1 mM) and inhibitors in serial dilutions (9 to 0.15 μM). Reactions were initiated by the addition of human 11-β-HSD1, either as Pichia pastoris cell homogenate or microsomes prepared from Pichia pastoris (the final amount of enzyme used was varied between 0.057 to 0.11 mg/mL). Following mixing, the plates were shaken for 30 to 45 minutes at room temperature. The reactions were terminated with 10 μL 1 mM GA stop solution. Monoclonal mouse antibody was then added (10 μL of 4 μM) followed by 100 μL of SPA beads (suspended according to the manufacturers instructions). Appropriate controls were set up by omitting the 11-β-HSD1 to obtain the non-specific binding (NSB) value.
The plates were covered with plastic film and incubated on a shaker for 30 minutes, at room temperature, before counting. The amount of [^3H]-cortisol, bound to the beads was determined in a microplate liquid scintillation counter. The calculation of the Ki values for the inhibitors was performed by use of Activity Base. The Ki value is calculated from IC50 and the Km value is calculated using the Cheng Prushoff equation (with reversible inhibition that follows the Michaelis-Menten equation): Ki=IC50(1+[S]/Km) [Cheng, Y. C.; Prushoff, W. H. Biochem. Pharmacol. 1973, 22, 3099-3108]. The IC50 is measured experimentally in an assay wherein the decrease of the turnover of cortisone to cortisol is dependent on the inhibition potential of each substance. The Ki values of the compounds of the present invention for the 11-β-HSD1 enzyme lie typically between about 10 nM and about 10 μM.

Structure (SMILES) | melting point | Ki [1]
Cc1c(Cl)cccc1NC(=O)CC1SC(NC2CC3C=CC2C3)=NC1=O (stereo not drawn) [Example 73, 2-[2-(Bicyclo[2.2.1]hept-5-en-2-ylamino)-4-oxo-4,5-dihydro-1,3-thiazol-5-yl]-N-(3-chloro-2-methylphenyl)acetamide] | 201 to 202 °C | –
O=C(CC1SC(NC2CC3C=CC2C3)=NC1=O)NCc1ccccc1 (stereo not drawn) [Example 74, N-Benzyl-2-[2-(bicyclo[2.2.1]hept-5-en-2-ylamino)-4-oxo-4,5-dihydro-1,3-thiazol-5-yl]acetamide] | 206 to 207 °C | –
O=C(CC1SC(NC2CCCCC2)=NC1=O)Nc1ccccc1Cl (stereo not drawn) [Example 97, N-(2-Chlorophenyl)-2-[2-(cyclohexylamino)-4-oxo-4,5-dihydro-1,3-thiazol-5-yl]acetamide] | 183 °C | –
O=C(CC1SC(N2CCCCC2)=NC1=O)Nc1ccccc1Cl (stereo not drawn) [Example 98, N-(2-Chlorophenyl)-2-(4-oxo-2-piperidin-1-yl-4,5-dihydro-1,3-thiazol-5-yl)acetamide] | 177 °C | –
O=C(CC1SC(NC2CC3C=CC2C3)=NC1=O)Nc1ccccc1 (stereo not drawn) [Example 99, 2-[2-(Bicyclo[2.2.1]hept-5-en-2-ylamino)-4-oxo-4,5-dihydro-1,3-thiazol-5-yl]-N-phenylacetamide] | 216 to 217 °C | –
O=C(CC1SC(NC2CC3C=CC2C3)=NC1=O)Nc1ccc2cn[nH]c2c1 (stereo not drawn) [Example 100, 2-[2-(Bicyclo[2.2.1]hept-5-en-2-ylamino)-4-oxo-4,5-dihydro-1,3-thiazol-5-yl]-N-1H-indazol-6-ylacetamide] | 222 to 223 °C | –
O=C(CC1SC(NC2CC3C=CC2C3)=NC1=O)Nc1ccc(F)cc1 (stereo not drawn) [Example 101, 2-[2-(Bicyclo[2.2.1]hept-5-en-2-ylamino)-4-oxo-4,5-dihydro-1,3-thiazol-5-yl]-N-(4-fluorophenyl)acetamide] | 215 °C | –
O=C(CC1SC(NC2CC3C=CC2C3)=NC1=O)Nc1ccccc1C(=O)c1ccccc1 (stereo not drawn) [Example 102, N-(2-benzoylphenyl)-2-[2-(Bicyclo[2.2.1]hept-5-en-2-ylamino)-4-oxo-4,5-dihydro-1,3-thiazol-5-yl]acetamide] | 191 to 192 °C | –
O=C(CC1SC(NC2CC3C=CC2C3)=NC1=O)Nc1cccc(C(=O)O)c1 (stereo not drawn) [Example 103, 3-({[2-(Bicyclo[2.2.1]hept-5-en-2-ylamino)-4-oxo-4,5-dihydro-1,3-thiazol-5-yl]acetyl}amino)benzoic acid] | 242 °C | –
CCNC(=O)CC1SC(NC2CC3C=CC2C3)=NC1=O (stereo not drawn) [Example 104, 2-[2-(Bicyclo[2.2.1]hept-5-en-2-ylamino)-4-oxo-4,5-dihydro-1,3-thiazol-5-yl]-N-ethylacetamide] | 187 to 188 °C | –
CNC(=O)CC1SC(NC2CC3C=CC2C3)=NC1=O (stereo not drawn) [Example 105, 2-[2-(Bicyclo[2.2.1]hept-5-en-2-ylamino)-4-oxo-4,5-dihydro-1,3-thiazol-5-yl]-N-methylacetamide] | 205 °C | –
CN(C(=O)CC1SC(NC2CC3C=CC2C3)=NC1=O)c1ccccc1Cl (stereo not drawn) [Example 107, 2-[2-(Bicyclo[2.2.1]hept-5-en-2-ylamino)-4-oxo-4,5-dihydro-1,3-thiazol-5-yl]-N-(2-chlorophenyl)-N-methylacetamide] | 149 to 150 °C | –
Cc1c(Cl)cccc1NC1=NC(=O)C(CC(=O)N(C)c2ccccc2)S1 (stereo not drawn) [Example 109, 2-{2-[(3-chloro-2-methylphenyl)amino]-4-oxo-4,5-dihydro-1,3-thiazol-5-yl}-N-methyl-N-phenylacetamide] | – | 709 nM
CCC(C)CNC1=NC(=O)C(CC(=O)N2CCCc3ccccc32)S1 (stereo not drawn) [Example 125, 5-[2-(3,4-dihydroquinolin-1(2H)-yl)-2-oxoethyl]-2-[(2-methylbutyl)amino]-1,3-thiazol-4(5H)-one] | – | 384 nM
O=C(NCCC1SC(NC2CCCCCC2)=NC1=O)Nc1ccccc1Cl (stereo not drawn) [Example 261, N-(2-chlorophenyl)-N′-{2-[2-(cycloheptylamino)-4-oxo-4,5-dihydro-1,3-thiazol-5-yl]ethyl}urea] | – | 559 nM
O=C(CC1SC(NC2CC3C=CC2C3)=NC1=O)Oc1ccccc1Cl (stereo not drawn) [Example 279, 2-Chlorophenyl [2-(bicyclo[2.2.1]hept-5-en-2-ylamino)-4-oxo-4,5-dihydro-1,3-thiazol-5-yl]acetate] | 211 °C | –
COc1ccccc1OC(=O)CC1SC(NC2CC3C=CC2C3)=NC1=O (stereo not drawn) [Example 281, 2-Methoxyphenyl [2-(bicyclo[2.2.1]hept-5-en-2-ylamino)-4-oxo-4,5-dihydro-1,3-thiazol-5-yl]acetate] | 175 to 176 °C | –
O=C(CC1SC(NC2CC3C=CC2C3)=NC1=O)Oc1cccc(N2CCOCC2)c1 (stereo not drawn) [Example 282, 3-Morpholin-4-ylphenyl [2-(bicyclo[2.2.1]hept-5-en-2-ylamino)-4-oxo-4,5-dihydro-1,3-thiazol-5-yl]acetate] | 203 to 204 °C | –
O=C(CC1SC(NC2CC3C=CC2C3)=NC1=O)c1ccc(Cl)cc1 (stereo not drawn) [Example 283, 2-(Bicyclo[2.2.1]hept-5-en-2-ylamino)-5-[2-(4-chlorophenyl)-2-oxoethyl]-1,3-thiazol-4(5H)-one] | 244 to 245 °C | –
O=C(O)CC1SC(NC2CC3C=CC2C3)=NC1=O (stereo not drawn) [Example 288, [2-(Bicyclo[2.2.1]hept-5-en-2-ylamino)-4-oxo4,5-dihydro-1,3-thiazol-5-yl]acetic acid] | 232 °C | –
O=C1N=C(NC2(c3ccc(Cl)cc3)CCC2)SC1CCNc1ccccc1 (stereo not drawn) [Example 335, 5-(2-anilinoethyl)-2-{[1-(4-chlorophenyl)cyclobutyl]amino}-1,3-thiazol-4(5H)-one hydrobromide] | – | 535 nM
